The values below come from patent US20240352022A1, “GROUP OF IMB-C5 SERIES COMPOUNDS HAVING ANTI-CORONAVIRUS ACTIVITY AND APPLICATION THEREOF” (priority 2021, published 2024).

Structures are written as SMILES.

For the experiment, the system named is SARS-COV-2 Beta variant. Description: microbe, parasite or virus in culture. Format: cell-based, Human coronavirus SARS-COV-2 Beta variant. The settings on record: for IC50: Severe acute respiratory syndrome coronavirus 2, Vero C1008.

In general, IC50 refers to the midpoint of a concentration-inhibition curve. `COc1cccc(Cn2c(NCCO)nc3c2c(=O)n(C)c(=O)n3C)c1` [IMB-C5]: the “inhibitory activity against SARS-COV-2 (in words)” value is on record as “had an inhibitory activity against the SARS-COV-2 Beta variant” and inhibition was half-maximal at 34.8 µM (IC50).
`CCC(CC)COC(=O)[C@H](C)N[P@](=O)(OC[C@H]1O[C@@](C#N)(c2ccc3c(N)ncnn23)[C@H](O)[C@@H]1O)Oc1ccccc1` [Remdesivir, reference compound] returned an IC50 of 0.73 µM.
